# From ChEMBL document CHEMBL1131388, “Synthesis and antitumor activity of 4-phenyl-1-arylsulfonyl imidazolidinones” (Bioorg Med Chem Lett, 1998)
# Experiments:
# K562 = assay: Cytotoxicity against human chronic myelogenous leukemia (K562) cell line using MTT assay; type: functional, cell-based
# SK-OV-3 = assay: Cytotoxicity against human ovarian adenocarcinoma (SK-OV-3) cell line using MTT assay; type: functional, cell-based
# A549 = assay: Cytotoxicity against human lung carcinoma A549 cell line using MTT assay
# [1] = Antitumor activity was evaluated against Lewis lung carcinoma as body weight change in BDF1 mice upon peroral administration at a dose of 100 mg/kg; type: functional, Mus musculus; details: route oral
# [2] = Antitumor activity was evaluated against Lewis lung carcinoma as tumor growth inhibition was determined in BDF1 mice upon peroral administration at a dose of 100 mg/kg; type: functional; details: Mus musculus, route oral, read-out: TGI
# SW-620 [3] = assay: Antitumor activity was evaluated against human colon carcinoma (SW620) as tumor growth inhibition in human tumor xenograft mice upon peroral administration at a dose of 65 mg/kg; type: functional; details: Mus musculus, route oral, read-out: TGI
# Colon 26 [4] = assay: Antitumor activity was evaluated against murine colon carcinoma (Colon26) as tumor growth inhibition was determined in BALB/c mice upon peroral administration at a dose of 65 mg/kg; type: functional; details: Mus musculus, route oral, read-out: TGI
# Colon 26 [5] = assay: Antitumor activity was evaluated against murine colon carcinoma (Colon26) as body weight change in BALB/c mice upon peroral administration at a dose of 65 mg/kg; type: functional, Mus musculus; details: route oral
# NCI-H23 [6] = assay: Antitumor activity was evaluated against human lung carcinoma (NCI-H23) as tumor growth inhibition in human tumor xenograft mice upon peroral administration at a dose of 65 mg/kg; type: functional; details: Mus musculus, route oral, read-out: TGI
# NCI-H23 [7] = assay: Antitumor activity was evaluated against human lung carcinoma (NCI-H23) as body weight change in human tumor xenograft mice upon peroral administration at a dose of 65 mg/kg; type: functional; details: route oral
# SW-620 [8] = assay: Antitumor activity was evaluated against human colon carcinoma (SW620) as body weight change in human tumor xenograft mice upon peroral administration at a dose of 65 mg/kg; type: functional; details: route oral
# Colon 26 [9] = assay: Antitumor activity was evaluated against murine colon carcinoma (Colon26) as tumor growth inhibition was determined in BALB/c mice upon intraperitoneal administration at a dose of 4 mg/kg; type: functional, Mus musculus
# SW-620 [10] = assay: Antitumor activity was evaluated against human colon carcinoma (SW620) as body weight change in human tumor xenograft mice upon intraperitoneal administration at doses of 1,2,3mg/kg; type: functional
# [11] = Antitumor activity was evaluated against Lewis lung carcinoma as tumor growth inhibition was determined in BDF1 mice upon intraperitoneal administration at a dose of 4 mg/kg; type: functional, Mus musculus
# NCI-H23 [12] = assay: Antitumor activity was evaluated against human lung carcinoma (NCI-H23) as body weight change in human tumor xenograft mice upon intraperitoneal administration at doses of 1,2,3mg/kg; type: functional
# NCI-H23 [13] = assay: Antitumor activity was evaluated against human lung carcinoma (NCI-H23) as tumor growth inhibition in human tumor xenograft mice upon intraperitoneal administration at doses of 1,2,3mg/kg; type: functional
# SW-620 [14] = assay: Antitumor activity was evaluated against human colon carcinoma (SW620) as tumor growth inhibition in human tumor xenograft mice upon intraperitoneal administration at doses of 1,2,3mg/kg; type: functional
# [15] = Antitumor activity was evaluated against Lewis lung carcinoma as body weight change in BDF1 mice upon intraperitoneal administration at a dose of 4 mg/kg; type: functional, Mus musculus
# Colon 26 [16] = assay: Antitumor activity was evaluated against murine colon carcinoma (Colon26) as body weight change in BALB/c mice upon intraperitoneal administration at a dose of 4 mg/kg; type: functional, Mus musculus
structure (smiles),measurement,setting,value
O=C1NC(c2ccccc2)CN1S(=O)(=O)c1ccc2c(c1)CCC2 (stereo not drawn),IC50,K562,42.7 µM
same,IC50,SK-OV-3,12.1 µM
same,IC50,A549,4.74 µM
O=C(c1ccc([N+](=O)[O-])cc1)N1CCc2cc(S(=O)(=O)N3CC(c4ccccc4)NC3=O)ccc21 (stereo not drawn),IC50,K562,18 µM
same,IC50,SK-OV-3,4.24 µM
same,IC50,A549,3.45 µM
O=C(c1ccccc1)N1CCc2cc(S(=O)(=O)N3CC(c4ccccc4)NC3=O)ccc21 (stereo not drawn),IC50,K562,4.12 µM
same,IC50,SK-OV-3,0.56 µM
same,IC50,A549,0.44 µM
Nc1ccc(C(=O)N2CCc3cc(S(=O)(=O)N4CC(c5ccccc5)NC4=O)ccc32)cc1 (stereo not drawn),Body weight change,[1],-1 g
same,inhibition in vivo at 100 mg/kg,[2],84.3%
same,inhibition in vivo at 65 mg/kg,SW-620 [3],87%
same,inhibition in vivo at 65 mg/kg,Colon 26 [4],55.6%
same,Body weight change,Colon 26 [5],0.4 g
same,IC50,K562,0.44 µM
same,IC50,SK-OV-3,1.24 µM
same,inhibition in vivo at 65 mg/kg,NCI-H23 [6],67%
same,IC50,A549,0.2 µM
same,Body weight change,NCI-H23 [7],0.6 g
same,Body weight change,SW-620 [8],1 g
COc1cccc2c1C(=O)c1c(O)c3c(c(O)c1C2=O)C[C@@](O)(C(=O)CO)C[C@@H]3O[C@H]1C[C@H](N)[C@H](O)[C@H](C)O1 [DOXORUBICIN],TCI,Colon 26 [9],42.5%
same,Body weight change,SW-620 [10],-2.6 g
same,TCI,[11],60.4%
same,IC50,K562,1.77 µM
same,Body weight change,NCI-H23 [12],-2.6 g
same,TCI,NCI-H23 [13],39%
same,IC50,SK-OV-3,4.15 µM
same,TCI,SW-620 [14],49%
same,Body weight change,[15],2 g
same,Body weight change,Colon 26 [16],3 g
O=C(Nc1ccc(Cl)cc1)NS(=O)(=O)c1ccc2c(c1)CCC2 [SULOFENUR],IC50,K562,50.1 µM
same,IC50,SK-OV-3,223 µM
same,IC50,A549,36.4 µM
